{"source": "patent US20100120700A1", "about": "“METHODS AND COMPOSITIONS FOR TREATING CERVICAL CANCER” (priority 2000, published 2010)", "assay_in_all_cases": "G assay PDZ-PL binding", "details_in_all_cases": "peptide 10 uM, protein 5", "key": {"Serine Protease domain 1": {"molecular_target": "T1, Serine Protease domain 1 (Homo sapiens, UniProt O43464)", "T1 construct": "made in house; host or cells: E. coli (DH5alpha, BL21 or JM109)", "T1 sequence (O43464 344-452)": "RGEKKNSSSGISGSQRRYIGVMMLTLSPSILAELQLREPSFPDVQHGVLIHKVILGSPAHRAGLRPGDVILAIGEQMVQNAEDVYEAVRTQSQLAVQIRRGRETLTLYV", "experimental": "(§1) (1) A PDZ-domain polypeptide is bound to a surface, e.g. a protein binding surface. In a preferred embodiment, a GST/PDZ fusion protein containing one or more PDZ domains is bound to a polystyrene 96-well plate. […] In one embodiment, the GST/PDZ fusion protein is bound via an anti-GST antibody that is coated onto the 96-well plate. Adequate binding to the plate can be achieved when: • a. 100 uL per well of 5 ug/mL goat anti-GST polyclonal antibody (Pierce) in PBS is added to a polystyrene 96-well plate (e.g., Num Polysorb) at 4° C. for 12 hours. • b. The plate is blocked by addition of 200 uL per well of PBS/BSA for 2 hours at 4° C. • c. The plate is washed 3 times with PBS. • d. 50 uL per well of 5 ug/mL GST/PDZ fusion protein) or, as a negative control, GST polypeptide alone (i.e. not a fusion protein) in PBS/BSA is added to the plate for 2 hours at 4° C. • e. The plate is again washed 3 times with PBS.\n(§2) (2) Biotinylated PL peptides are allowed to react with the surface by addition of 50 uL per well of 20 uM solution of the biotinylated peptide in PBS/BSA for 10 minutes at 4° C., followed by an additional 20 minute incubation at 25° C.\n(§3) (3) The binding of the biotinylated peptide to the GST/PDZ fusion protein surface can be detected using a variety of methods and detectors known to one of skill in the art. In one embodiment, 100 uL per well of 0.5 ug/mL streptavidin-horse radish peroxidase (HRP) conjugate dissolved in BSA/PBS is added and allowed to react for 20 minutes at 4° C. The plate is then washed 5 times with 50 mM Tris pH 8.0 containing 0.2% Tween 20, and developed by addition of 100 uL per well of HRP-substrate solution (TMB, Dako) for 20 minutes at room temperature (RT). The reaction of the HRP and its substrate is terminated by addition of 100 uL per well of 1M sulfuric acid, and the absorbance of each well of the plate is read at 450 nm.\n(§4) (4) Specific binding of a PL peptide and a PDZ domain polypeptide is determined by comparing the signal from the well(s) in which the PL peptide and PDZ domain polypeptide are combined, with the background signal(s). The background signal is the signal found in the negative control(s). Typically a specific or selective reaction will be at least twice background signal, more typically more than 5 times background, and most typically 10 or more times the background signal. In addition, a statistically significant reaction will involve multiple measurements of the reaction with the signal and the background differing by at least two standard errors, more typically four standard errors, and most typically six or more standard errors. Correspondingly, a statistical test (e.g. a T-test) comparing repeated measurements of the signal with-repeated measurements of the background will result in a p-value<0.05, more typically a p-value<0.01, and most typically a p-value<0.001 or less. As noted, in an embodiment of the “G” assay, the signal from binding of a given PL peptide to immobilized (surface bound) GST polypeptide alone is one suitable negative control (sometimes referred to as “B 1”). Because all measurement are done in multiples (i.e. at least duplicate) the arithmetic mean (or, equivalently, average.) of several measurements is used in determining the binding, and the standard error of the mean is used in determining the probable error in the measurement of the binding. The standard error of the mean of N measurements equals the square root of the following: the sum of the squares of the difference between each measurement and the mean, divided by the product of (N) and (N−1). Thus, in one embodiment, specific binding of the PDZ protein to the platebound peptide is determined by comparing the mean signal (“mean S”) and standard error of the signal (“SE”) for a particular PL-PDZ combination with the mean B1. […]"}, "ZO-2 domain 2": {"molecular_target": "T2, ZO-2 domain 2 (Homo sapiens, UniProt Q9UDY2)", "T2 construct": "made in house; host or cells: E. coli (DH5alpha, BL21 or JM109)", "T2 sequence (Q9UDY2 with tags, fused parts or gaps)": "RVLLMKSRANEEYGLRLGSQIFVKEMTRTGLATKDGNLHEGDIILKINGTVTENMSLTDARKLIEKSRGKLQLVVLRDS", "experimental": "as §1, §2, §3, §4"}, "CARD14 domain 1": {"molecular_target": "T3, CARD14 domain 1 (Homo sapiens, UniProt Q9BXL6)", "T3 construct": "made in house; host or cells: E. coli (DH5alpha, BL21 or JM109)", "T3 sequence (Q9BXL6 565-664)": "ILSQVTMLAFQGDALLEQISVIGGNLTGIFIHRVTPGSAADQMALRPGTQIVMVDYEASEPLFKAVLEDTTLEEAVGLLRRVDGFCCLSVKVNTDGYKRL", "experimental": "as §1, §2, §3, §4"}, "EBP50 #311.1 domain 1": {"molecular_target": "T4, EBP50 #311.1 domain 1 (Homo sapiens, UniProt O14745)", "T4 construct": "made in house; host or cells: E. coli (DH5alpha or BL-21)", "T4 sequence (O14745 with tags, fused parts or gaps)": "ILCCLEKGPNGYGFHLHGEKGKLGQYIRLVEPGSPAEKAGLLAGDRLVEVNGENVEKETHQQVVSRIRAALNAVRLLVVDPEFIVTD", "experimental": "as §1, §2, §3, §4"}, "KIAA0751 domain 1": {"molecular_target": "T5, KIAA0751 domain 1 (Homo sapiens, UniProt Q9UQ26)", "T5 construct": "made in house; host or cells: E. coli (DH5alpha, BL21 or JM109)", "T5 sequence (Q9UQ26 with tags, fused parts or gaps)": "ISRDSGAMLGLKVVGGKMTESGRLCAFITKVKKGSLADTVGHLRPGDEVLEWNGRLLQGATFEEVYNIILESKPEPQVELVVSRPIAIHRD", "experimental": "as §1, §2, §3, §4"}, "DLG2 #290.1 domain 2": {"molecular_target": "T6, DLG2 #290.1 domain 2 (Homo sapiens, UniProt Q15700, K278N)", "T6 construct": "made in house; host or cells: E. coli (DH5alpha, BL21 or JM109)", "T6 sequence (Q15700 whole entry, looked up, the tested form differs by isoform, tags, fused parts or gaps, stated change not applied)": "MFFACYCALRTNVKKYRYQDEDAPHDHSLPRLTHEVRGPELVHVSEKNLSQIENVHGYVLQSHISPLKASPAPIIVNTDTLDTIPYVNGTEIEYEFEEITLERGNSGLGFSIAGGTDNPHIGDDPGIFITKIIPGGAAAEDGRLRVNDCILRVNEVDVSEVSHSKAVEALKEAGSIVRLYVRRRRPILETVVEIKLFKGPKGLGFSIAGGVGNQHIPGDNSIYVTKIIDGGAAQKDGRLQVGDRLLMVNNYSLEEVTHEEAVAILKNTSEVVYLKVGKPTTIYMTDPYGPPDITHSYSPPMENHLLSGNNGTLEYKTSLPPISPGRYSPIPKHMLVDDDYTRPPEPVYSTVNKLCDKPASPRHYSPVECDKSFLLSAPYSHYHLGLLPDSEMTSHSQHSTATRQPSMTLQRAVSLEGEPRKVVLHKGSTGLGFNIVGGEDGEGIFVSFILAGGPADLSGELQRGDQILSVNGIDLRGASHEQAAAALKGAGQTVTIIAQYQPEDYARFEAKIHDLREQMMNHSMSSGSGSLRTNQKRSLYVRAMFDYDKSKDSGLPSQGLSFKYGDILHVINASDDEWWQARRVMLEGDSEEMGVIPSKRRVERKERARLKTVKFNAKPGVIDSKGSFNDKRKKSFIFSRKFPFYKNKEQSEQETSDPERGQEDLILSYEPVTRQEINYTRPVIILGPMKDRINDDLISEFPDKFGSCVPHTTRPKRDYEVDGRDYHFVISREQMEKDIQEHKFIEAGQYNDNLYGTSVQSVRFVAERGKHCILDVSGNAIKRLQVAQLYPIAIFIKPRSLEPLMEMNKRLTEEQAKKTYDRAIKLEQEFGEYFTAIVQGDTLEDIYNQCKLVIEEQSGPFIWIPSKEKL", "experimental": "as §1, §2, §3, §4"}, "KIAA1284 domain 1": {"molecular_target": "T7, KIAA1284 domain 1 (Homo sapiens, UniProt Q9ULD6)", "T7 construct": "made in house; host or cells: E. coli (DH5alpha, BL21 or JM109)", "T7 sequence (Q9ULD6 159-271)": "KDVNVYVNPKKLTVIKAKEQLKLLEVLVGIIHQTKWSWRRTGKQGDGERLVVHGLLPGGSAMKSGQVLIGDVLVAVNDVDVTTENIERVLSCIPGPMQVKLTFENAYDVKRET", "experimental": "as §1, §2, §3, §4"}, "NOS1 domain 1": {"molecular_target": "T8, NOS1 domain 1 (Homo sapiens, UniProt P29475)", "T8 construct": "made in house; host or cells: E. coli (DH5alpha, BL21 or JM109)", "T8 sequence (P29475 11-100)": "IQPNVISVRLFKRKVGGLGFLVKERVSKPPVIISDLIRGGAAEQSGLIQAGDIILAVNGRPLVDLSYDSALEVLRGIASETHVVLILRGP", "experimental": "as §1, §2, §3, §4"}, "novel PDZ gene domain 1": {"molecular_target": "T9, novel PDZ gene domain 1 (Homo sapiens, UniProt Q9H5P4)", "T9 construct": "made in house; host or cells: E. coli (DH5alpha, BL21 or JM109)", "T9 sequence (Q9H5P4 with tags, fused parts or gaps)": "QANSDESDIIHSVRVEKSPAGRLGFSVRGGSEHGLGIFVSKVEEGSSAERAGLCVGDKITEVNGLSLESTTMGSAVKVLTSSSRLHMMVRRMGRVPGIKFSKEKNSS", "experimental": "as §1, §2, §3, §4"}, "ZO-2 domain 1": {"molecular_target": "T10, ZO-2 domain 1 (Homo sapiens, UniProt Q9UDY2)", "T10 construct": "made in house; host or cells: E. coli (DH5alpha, BL21 or JM109), vector pGEX-3X", "T10 sequence (Q9UDY2 27-122)": "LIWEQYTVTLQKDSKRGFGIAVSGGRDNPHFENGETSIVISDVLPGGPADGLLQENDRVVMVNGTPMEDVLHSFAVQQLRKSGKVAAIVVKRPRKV", "experimental": "as §1, §2, §3, §4"}, "[1]": {"molecular_target": "T11, Syntrophin gamma 1 domain 1 (Homo sapiens, UniProt Q9NSN8)", "T11 construct": "made in house; host or cells: E. coli (DH5alpha, BL21 or JM109), vector pGEX-3X", "T11 sequence (Q9NSN8 49-149)": "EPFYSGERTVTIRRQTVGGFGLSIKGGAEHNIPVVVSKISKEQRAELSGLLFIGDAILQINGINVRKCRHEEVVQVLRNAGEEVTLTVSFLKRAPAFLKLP", "experimental": "as §1, §2, §3, §4"}, "PDZ-73 domain 2": {"molecular_target": "T12, PDZ-73 domain 2 (Homo sapiens, UniProt Q9Y6N9)", "T12 construct": "made in house; host or cells: E. coli (DH5alpha, BL21 or JM109), vector pGEX-3X", "T12 sequence (Q9Y6N9 with tags, fused parts or gaps)": "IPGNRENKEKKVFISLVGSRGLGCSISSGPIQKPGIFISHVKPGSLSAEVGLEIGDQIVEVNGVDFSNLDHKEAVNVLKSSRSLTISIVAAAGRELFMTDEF", "experimental": "as §1, §2, §3, §4"}, "Outer Membrane domain 1": {"molecular_target": "T13, Outer Membrane domain 1 (Homo sapiens, UniProt P57105)", "T13 construct": "made in house; host or cells: E. coli (DH5alpha, BL21 or JM109)", "T13 sequence (P57105 with tags, fused parts or gaps)": "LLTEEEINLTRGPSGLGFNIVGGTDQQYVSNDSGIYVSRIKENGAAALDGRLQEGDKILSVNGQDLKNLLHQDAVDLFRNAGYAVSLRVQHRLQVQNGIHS", "experimental": "as §1, §2, §3, §4"}, "INADL domain 8": {"molecular_target": "T14, INADL domain 8 (Homo sapiens, UniProt Q8NI35)", "T14 construct": "made in house; host or cells: E. coli (DH5alpha or BL-21)", "T14 sequence (Q8NI35 1425-1517)": "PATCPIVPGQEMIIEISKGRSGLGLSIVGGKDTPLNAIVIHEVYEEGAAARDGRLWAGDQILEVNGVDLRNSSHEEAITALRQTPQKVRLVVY", "experimental": "as §1, §2, §3, §4"}, "[2]": {"molecular_target": "T15, Syntrophin beta 2 domain 1 (Homo sapiens, UniProt Q13425)", "T15 construct": "made in house; host or cells: E. coli (DH5alpha, BL21 or JM109)", "T15 sequence (Q13425 with tags, fused parts or gaps)": "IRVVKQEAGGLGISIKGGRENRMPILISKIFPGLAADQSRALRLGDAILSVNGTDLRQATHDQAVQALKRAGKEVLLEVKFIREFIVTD", "experimental": "as §1, §2, §3, §4"}}, "note": "Where “and” joins values, the source holds several entries; their conditions need not be identical. Identical values can stand only once.", "data": [{"substance": "20 mer peptide corresponding to the C-terminus of HPV16 E6 (PDZ ligand), biotinylated in binding assays; ends SSRTRRETQL (SEQ ID NO: 13) [HPV E6 #16]", "values": [{"measurement": "Ave OD", "setting": "Serine Protease domain 1; A450 nm", "value": 0.3425}, {"measurement": "OD S/N", "setting": "Serine Protease domain 1; vs GST only well", "value": 1.55}, {"measurement": "Ave OD", "setting": "ZO-2 domain 2; A450 nm", "value": 0.3565}, {"measurement": "OD S/N", "setting": "ZO-2 domain 2; vs GST only well", "value": 2.15}, {"measurement": "Ave OD", "setting": "CARD14 domain 1; A450 nm", "value": 0.342}, {"measurement": "OD S/N", "setting": "CARD14 domain 1; vs GST only well", "value": 1.52}, {"measurement": "Ave OD", "setting": "EBP50 #311.1 domain 1; A450 nm", "value": 0.4325}, {"measurement": "OD S/N", "setting": "EBP50 #311.1 domain 1; vs GST only well", "value": 2.05}, {"measurement": "Ave OD", "setting": "KIAA0751 domain 1; A450 nm", "value": 0.4505}, {"measurement": "OD S/N", "setting": "KIAA0751 domain 1; vs GST only well", "value": 2.10}, {"measurement": "Ave OD", "setting": "DLG2 #290.1 domain 2; A450 nm", "value": "1.784 and 1.439"}, {"measurement": "OD S/N", "setting": "DLG2 #290.1 domain 2; vs GST only well", "value": "9.17 and 13.39"}, {"measurement": "Ave OD", "setting": "KIAA1284 domain 1; A450 nm", "value": 0.473}, {"measurement": "OD S/N", "setting": "KIAA1284 domain 1; vs GST only well", "value": 2.72}, {"measurement": "Ave OD", "setting": "NOS1 domain 1; A450 nm", "value": 0.4775}, {"measurement": "OD S/N", "setting": "NOS1 domain 1; vs GST only well", "value": 2.88}, {"measurement": "Ave OD", "setting": "novel PDZ gene domain 1; A450 nm", "value": 0.5455}, {"measurement": "OD S/N", "setting": "novel PDZ gene domain 1; vs GST only well", "value": 1.89}, {"measurement": "Ave OD", "setting": "ZO-2 domain 1; A450 nm", "value": "0.3415 and 0.622"}, {"measurement": "OD S/N", "setting": "ZO-2 domain 1; vs GST only well", "value": "2.11 and 2.56"}, {"measurement": "Ave OD", "setting": "[1]; A450 nm", "value": "0.3585 and 0.618"}, {"measurement": "OD S/N", "setting": "[1]; vs GST only well", "value": "2.00 and 3.08"}, {"measurement": "Ave OD", "setting": "PDZ-73 domain 2; A450 nm", "value": 0.5615}, {"measurement": "OD S/N", "setting": "PDZ-73 domain 2; vs GST only well", "value": 1.95}, {"measurement": "Ave OD", "setting": "Outer Membrane domain 1; A450 nm", "value": "2.392 and 1.3595"}, {"measurement": "OD S/N", "setting": "Outer Membrane domain 1; vs GST only well", "value": "11.39 and 6.25"}, {"measurement": "Ave OD", "setting": "INADL domain 8; A450 nm", "value": 0.3875}, {"measurement": "OD S/N", "setting": "INADL domain 8; vs GST only well", "value": 1.58}, {"measurement": "Ave OD", "setting": "[2]; A450 nm", "value": "1.1585 and 1.0325"}, {"measurement": "OD S/N", "setting": "[2]; vs GST only well", "value": "5.81 and 5.35"}]}]}
